The test system of data set [1] is human erythroid (CFU-E, BFU-E) progenitors. Kind of data set: Erythroid CFU assay (human bone marrow clonogenic progenitors). Conditions: 10 uM, 14 days in culture. Type of data set: cell-based. How it is done: (§1) Clonogenic progenitors of human erythroid (CFU-E, BFU-E), granulocyte-monocyte (CFU-GM) and multipotential (CFU-GEMM) lineages were assessed in a semi-solid methylcellulose-based media formulation containing rhIL-3 (10 ng/mL), rhGM-SCF (10 ng/mL), rhSCF (50 ng/mL) and Epo (3 U/mL).
(§2) Normal human bone marrow light density cells derived from normal bone marrow (NorCal Biologics, California) and qualified at ReachBio, were stored in the gaseous phase of liquid nitrogen (−152° C.) until required for the assay. On the day of the experiment, the cells were thawed rapidly, the contents of each vial was diluted in 10 mL of Iscove's modified Dulbecco's medium containing 10% fetal bovine serum (IMDM+10% FBS) and washed by centrifugation (approximately 1200 r.p.m. for 10 minutes, room temperature). The supernatant was discarded and the cell pellets resuspended in a known volume of IMDM+10% FBS. A cell count (3% glacial acetic acid) and viability assessment (trypan blue exclusion test) was performed for the bone marrow sample.
(§3) On the day of the experiment, the compounds were dissolved in DMSO to a stock concentration of 10 mM. Serial dilutions were prepared from the stock concentration to achieve concentrations of 2 and 0.4 mM. When added to the methylcellulose-based media at 1:1000 (v/v), the final test concentrations of 10, 2 and 0.4 μM were achieved. Additionally, 5-FU was evaluated at 1.0, 0.1 and 0.01 μg/mL.
(§4) Clonogenic progenitors of the human erythroid (CFU-E and BFU-E) and myeloid (CFU-GM) lineages were set up in the methylcellulose-based media formulations described above. All compounds were added to the medium to give the final desired concentrations ([…] 5-Fluorouracil (Sigma Aldrich) was used as a positive control for progenitor proliferation (inhibition of colony growth) and was introduced to the human bone marrow cultures at 1.0, 0.1, and 0.01 μg/mL. Solvent control cultures (containing no compound but 0.1% DMSO) as well as standard controls (containing no compound and no DMSO) were also initiated.
(§5) Human myeloid and erythroid progenitor assays were initiated at 2.0×10^4 cells per culture. Following 14 days in culture, myeloid and erythroid colonies were assessed microscopically and scored by trained personnel. The colonies were divided into the following categories based on size and morphology: CFU-E, BFU-E, CFU-GM and CFU-GEMM.
(§6) The mean±one standard deviation of three replicate cultures was calculated for progenitors of each category (CFU-E, BFU-E, etc.). Two-tailed t-tests were performed to assess if there was a difference in the number of colonies generated between solvent control and treated cultures. Due to the potential subjectivity of colony enumeration, a p value of less than 0.01 is deemed significant. To calculate the concentration of 50% inhibition of colony growth (IC50) for each compound, a dose response curve was generated plotting the log of the compound concentration versus the percentage of control colony growth using XLfit software (IDBS). The concentration of 50% inhibition of colony growth (IC50) was calculated based on the sigmoid curve fit using Dose-Response, One-Site Model formula: y=A+[(B−A)/(1+((C/x)^D))], where A=the initial value (baseline response), B=maximum response, C=center (drug concentration that provokes a response halfway between A and B) and D=slope of the curve at midpoint. Further, plots and additional dose response curves were generated using GraphPad Prism 7.0.
(§7) Erythroid (CFU-E and BFU-E), myeloid (CFU-GM) and multi-potential (CFU-GEMM) colony enumeration was performed by trained personnel. The distribution of colony types as well as general colony and cellular morphology was analyzed. For statistical analysis colony numbers in compound treated cultures were compared to the solvent control cultures. […] The experiment was used to evaluate the potential effect of test compounds on human erythroid and myeloid progenitor proliferation in a methylcellulose-based medium. […]

Data set [2] deals with human myeloid (CFU-GM) progenitors. Kind of data set: Myeloid CFU assay (human bone marrow clonogenic progenitors). Type of data set: cell-based. The note with it: 14 days in culture. The method, then: as §1, §2, §3, §4, §5, §6, §7
In data set [3] the target is T1, HDAC2 (Homo sapiens (Human), UniProt Q92769). Kind of data set: HDAC2 enzymatic assay (deacetylation of peptide substrate, Caliper LabChip). Format: biochemical. Conditions: reaction time 17 hours, 25° C. How it is done: (§8) The following describes an assay protocol for measuring the deacetylation of a peptide substrate by the enzymes HDAC2 or HDAC1. Enzyme, substrate, and cofactors are combined in a well of a microtiter plate and incubated for […] at 25° C. At the end of the incubation, the reaction is quenched by the addition of an SDS-containing buffer. Substrate and product are separated and quantified electrophoretically using the microfluidic-based LabChip 3000 Drug Discovery System from Caliper Life Sciences. The peptide substrate used in this assay is FAM-TSRHK(AC)KL-CONH2 (FAM is carboxyfluorescein). Peptide should be >98% purity by Capillary Electrophoresis. • 1. To a well of a 384-well plate, add 5 μL of 2× enzyme buffer. Using Labcyte Echo 550, add 100 nl compound. Enzyme and compound may be pre-incubated at this time if desired. • 2. Add 5 μL of 2× substrate buffer. • 3. Incubate plate at 25° C. for 17 hours. • 4. Terminate reaction by adding 40 μL of 1.55× stop buffer. • 5. Create job on a Caliper LabChip® 3000 Drug Discovery System. • 6. Load the plate and start electrophoresis using blue laser (480 nm) for excitation and green CCD (520 nm) for detection (CCD2). Reaction time=17 hours; Reaction temperature=25° C.
T1 sequence (Q92769 whole entry): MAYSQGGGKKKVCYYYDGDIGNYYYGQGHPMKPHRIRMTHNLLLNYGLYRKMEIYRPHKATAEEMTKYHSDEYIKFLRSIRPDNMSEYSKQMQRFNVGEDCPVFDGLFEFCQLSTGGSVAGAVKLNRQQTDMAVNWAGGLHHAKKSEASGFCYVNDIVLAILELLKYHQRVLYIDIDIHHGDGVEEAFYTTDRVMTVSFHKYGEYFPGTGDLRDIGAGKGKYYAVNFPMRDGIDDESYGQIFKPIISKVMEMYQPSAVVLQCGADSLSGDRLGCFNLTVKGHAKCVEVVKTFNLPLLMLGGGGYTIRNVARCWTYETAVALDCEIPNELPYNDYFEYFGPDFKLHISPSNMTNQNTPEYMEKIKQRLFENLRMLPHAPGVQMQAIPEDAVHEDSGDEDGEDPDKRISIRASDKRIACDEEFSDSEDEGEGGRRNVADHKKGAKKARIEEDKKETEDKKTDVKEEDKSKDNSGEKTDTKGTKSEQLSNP
(§9) 1% DMSO (from compound) 1 μM FAM-TSRHK(AC)KL-CONH2 5 nM HDAC Enzyme (specific activity may vary from lot-to-lot, and enzyme concentration may need to be adjusted to yield ˜10-20% conversion of substrate to product).
(§10) Substrate and product peptides present in each sample are separated electrophoretically using the LabChip 3000 capillary electrophoresis instrument. As substrate and product peptides are separated, two peaks of fluorescence are observed. Change in the relative fluorescence intensity of the substrate and product peaks is the parameter measured, reflecting enzyme activity. Capillary electrophoregramms (RDA acquisition files) are analyzed using HTS Well Analyzer software (Caliper Life Sciences). The enzyme activity in each sample is determined as the product to sum ratio (PSR):P/(S+P), where P is the peak height of the product peptide and S is the peak height of the substrate peptide. For each compound, enzyme activity is measured at various concentrations (12 concentrations of compound spaced by 3× dilution intervals). Negative control samples (0%-inhibition in the absence of inhibitor) and positive control samples (100%-inhibition, in the presence of 20 mM EDTA) are assembled in replicates of four and are used to calculate %-inhibition values for each compound at each concentration. Percent inhibition (Pinh) is determined using following equation: Pinh=(PSR0%−PSRinh)/(PSR0%−PSR100%)*100, where PSRinh is the product sum ratio in the presence of inhibitor, PSR0% is the average product sum ration in the absence of inhibitor and PSR100% is the average product sum ratio in 100%-inhibition control samples.
(§11) The IC50 values of inhibitors are determined by fitting the inhibition curves (Pinh versus inhibitor concentration) by 4 parameter sigmoidal dose-response model using XLfit 4 software (MDS).

Data set [4] has as its target T1, HDAC2. Put plainly: HDAC2 enzymatic inhibition assay in SH-SY5Y cell lysate (HDAC-Glo 2). Type of data set: cell-based. The note with it: SH-SY5Y cells, five hours incubation. How it is done: SH-SY5Y cells (Sigma) were cultured in Eagle's Modified Essential Medium supplemented with 10% fetal bovine serum and pen/strep. Twenty-four hours prior to compound dosing 20 uL of cells were plated in white 384 well plates at a density of 1,500 cells/well. Compounds were serially diluted in neat DMSO and then diluted 1:100 v/v into media without FBS and mixed. Media was removed from the plated cells and the diluted compounds in serum free media (1% v/v final DMSO) were added and incubated at 37.0 for five hours. Ten uL of HDAC-Glo 2 reagent with 0.1% Triton X-100 was then added, the plate was mixed and allowed to develop at room temperature for 100 minutes. Plates were then read with a Spectramax LMax luminometer employing a 0.4s integration time. Dose response curves were constructed with normalized data where CI-994 at 100 uM was defined as 100% inhibition and DMSO alone as 0% inhibition.

In the next data set the target is HDAC1 (Homo sapiens (Human), UniProt Q13547). Kind of data set: HDAC1 enzymatic assay (deacetylation of peptide substrate, Caliper LabChip). Format: biochemical. Conditions: reaction time 17 hours, 25° C. How it is done:
as §8, §9, §10, §11

HDAC1, sequence (Q13547 whole entry): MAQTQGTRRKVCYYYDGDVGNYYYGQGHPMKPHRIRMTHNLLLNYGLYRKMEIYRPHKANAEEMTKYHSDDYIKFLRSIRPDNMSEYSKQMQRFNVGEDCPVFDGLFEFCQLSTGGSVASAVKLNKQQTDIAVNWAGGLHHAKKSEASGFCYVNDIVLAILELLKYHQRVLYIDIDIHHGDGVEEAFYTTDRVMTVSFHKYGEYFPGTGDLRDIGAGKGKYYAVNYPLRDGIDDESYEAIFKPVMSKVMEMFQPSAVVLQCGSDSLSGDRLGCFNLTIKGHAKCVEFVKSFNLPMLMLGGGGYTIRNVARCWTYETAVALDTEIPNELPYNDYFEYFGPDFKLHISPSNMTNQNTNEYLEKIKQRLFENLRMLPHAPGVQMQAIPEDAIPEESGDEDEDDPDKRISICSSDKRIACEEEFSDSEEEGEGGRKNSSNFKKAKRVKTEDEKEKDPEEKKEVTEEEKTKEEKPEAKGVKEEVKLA

In the case of `Cc1cc2c(cn1)CN(C(=O)Nc1nc(-c3ccc(F)cc3F)ccc1N)C2` [Compound 1], in data set [1], the “Erythroid % control remaining @ 10 uM dose” value is reported as 53%. Further, the “Myeloid % control remaining @ 10 uM dose” value in data set [2] is 100%. Besides, the IC50 fell in the range of 100 to 500 nM at HDAC2 [3], 100 to 1000 nM on HDAC2 [4] and 100 to 500 nM against HDAC1.
In the case of `Cc1nc2c(s1)CN(C(=O)Nc1nc(-c3ccc(F)cc3F)ccc1N)C2` [Compound 3], the “Erythroid % control remaining @ 10 uM dose” value in data set [1] is 89%. In addition, in data set [2], the “Myeloid % control remaining @ 10 uM dose” value stood at 109%. Moreover, the IC50 was 500 to 5000 nM at HDAC2 [3], 100 to 1000 nM at HDAC2 [4] and 100 to 500 nM at HDAC1.
The like results for `COCc1cc2c(cn1)CN(C(=O)Nc1nc(-c3ccccc3F)ccc1N)C2` [Compound 9] were, in that order, 87%, 102%, 500 to 5000 nM, 100 to 1000 nM and 100 to 500 nM.

The record behind these values is patent publication US11225475B2, “Substituted pyridines as inhibitors of histone deacetylase” (Alkermes, Inc., priority 2017, dated 2022).
